Common to all, as to assay type: cell-based
One test relates to BxPC3. The test can be described thus: Cell proliferation assay. The conditions noted are these: Homo sapiens, BXPC-3, 72 h, read-out: IC50 in cancer cell lines.
Test [1] deals with acetylation of histones H3, H4 and tubulin in HCT-116 colorectal cancer cells. The test is described as follows: Western Blot analysis of Ac-H3, Ac-H4 and Ac-tubulin. The conditions noted are these: HCT-116 cells, various concentrations, 24 h.
The test system of a further test is SK-OV-3. The test is described as follows: Cell proliferation assay. The conditions noted are these: Homo sapiens, SK-OV-3, 72 h, read-out: IC50 in cancer cell lines.
The subject of another test is A375. The test is described as follows: Cell proliferation assay. The settings on record: Homo sapiens, A-375, 72 h, read-out: IC50 in cancer cell lines.

The results in this text go back to article PMC4724696 (Acta Pharmaceutica Sinica. B, 2016).

As for `O=C(CCCCCCC(=O)Nc1ccccc1)NO` [SAHA, Vorinostat], the 50% inhibitory concentration (IC50) in the test with BxPC3 was 2240 ± 610 nM; with SK-OV-3, 3.57 ± 0.74 µM; in the test with A375, 1860 ± 420 nM. Also, in test [1], the “acetylation of histones H3, H4 and tubulin” value is “Increased acetylated histones and tubulin levels”.
